Measured values published in patent US20050112079A1, “Depilatories and agents for external use” (KAO CORPORATION, priority 1999, published 2005).
Where no end group is shown, it is not given here.

Assays:
[1] = tested on: growth-phase hair follicle; experiment: Structural changes of hair follicle structure, hematoxylin-eosin stained dorsal skin; assay type: in vivo; details: guinea pig, 0.3 μg intracutaneous
Method: A solution of endothelin-1 (0.3 μg) in phosphate buffer solution (PBS), which contained […] of bovine serum albumin (BSA), was intracutaneously administered (at 50 μL/site) to the dorsal part of a guinea pig. After that, samples were collected day after day from the administered dorsal skin, and tissue samples were prepared by hematoxylin-eosin staining.

[2] = tested on: hair at the dorsal part of a guinea pig; experiment: Depilation inducing effects of endothelin, intracutaneous administration; assay type: in vivo; details: 0.3 μg intracutaneous (50 μL/site), 10 days after the administration
Method: A solution of endothelin-1 (0.3 μg) in phosphate buffer solution (PBS), which contained 0.1% of bovine serum albumin (BSA), was intracutaneously administered (at 50 μL/site) to the dorsal part of a guinea pig.

regrowth of dorsal hair = experiment: Hair growth test in mice, application to depilated skin; assay type: in vivo, C3H/HeNCrj mouse; details: mouse, 0.5 mg in 2.5 mL PEG 400/PEG 3350 (95/5), 25 μL/application once a day over 2 weeks; regrown hair area/depilated area×100
Method: Endothelin-1 (0.5 mg) was dissolved in a mixed solution (2.5 mL) of polyethylene glycol 400 (average molecular weight: 400) and polyethylene glycol 3350 (average molecular weight: 3,350) (mixing ratio: 95/5) to prepare a hair growth inhibitor. Dorsal hair of each 8-week old C3H/HeNCrj mouse was removed with a depilatory cream (over an area of 2×4 cm^2), and the hair growth inhibitor was applied to the depilated site once a day at a dose of 25 μL/application over 2 weeks. A group in which only the solvent was similarly applied was employed as a control group. To observe regrowth of hair, the above-described depilated site on day 14 after the depilation was photographed at a predetermined fixed magnification, and the percentage of a regrown hair area (regrown hair area/depilated area×100) was determined using an image analyzer.

[3] = tested on: hair follicle organs in growth phase isolated from human scalp tissue; experiment: Growth inhibitory effects on organ-cultured hair follicles; assay type: cell-based
Method: From a human scalp tissue, hair follicle organs in growth phase were surgically isolated under a stereomicroscope. Following a conventional procedure [Philpott M. P., et al., J. Cell Sci., 97, 463-471 (1990)], the isolated hair follicles were subjected to organ culture. Described specifically, endothelin-1 was added to William's E medium which contained L-glutamine (2 mM), hydrocortisone (10 ng/mL), insulin (10 μg/mL), sodium selenite (10 ng/mL) and transferrin (10 μg/mL).

[4] = tested on: growth-phase hair follicles; experiment: Growth-phase hair follicle inhibitory effects, number of hair shafts grown per unit area; assay type: in vivo; details: guinea pig dorsal, 1 μg intracutaneous, fifth day after the administration (FIG. 1)
Method: Solutions (1 μg, each) of endothelin-1, endothelin-2 and endotherin-3 in aliquots of phosphate buffer solution (PBS), which contained 0.1% of bovine serum albumin (BSA), were intracutaneously administered (at 50 μL/site) to the dorsal parts of guinea pigs, respectively, from which hair had been cut off by a hair clipper. Three days after the administration, hair was again cut off by a hair clipper from the administered sites. Two days after the cutting, the numbers of hair shafts grown per unit area at the administered sites were counted.

Compound | Hair follicle histology ([1]; 1st day after the administration (FIG. 2)) | Hair follicle histology ([1]; 3rd day after the administration (FIG. 2)) | Depilation at the administered site [2] | Percentage of regrown hair area on day 14 after depilation (regrowth of dorsal hair) | Grown hair follicle length versus control group ([3]; day 4 of incubation and the subsequent days (FIG. 3)) | Structural change of incubated hair follicles ([3]; during the incubation period (FIG. 4)) | Number of hair shafts grown per unit area at the administered site [4]
CC[C@H](C)[C@H](NC(=O)[C@H](CC(=O)O)NC(=O)[C@H](CC(C)C)NC(=O)[C@H](Cc1c[nH]cn1)NC(=O)[C@@H]1CSSC[C@H](N)C(=O)N[C@@H](CO)C(=O)N[C@H]2CSSC[C@H](NC(=O)[C@H](CCC(=O)O)NC(=O)[C@H](CCCCN)NC(=O)[C@H](CC(=O)O)NC(=O)[C@H](CCSC)NC(=O)[C@H](CC(C)C)NC(=O)[C@H](CO)NC(=O)[C@H](CO)NC2=O)C(=O)N[C@@H](C(C)C)C(=O)N[C@@H](Cc2ccc(O)cc2)C(=O)N[C@@H](Cc2ccccc2)C(=O)N1)C(=O)N[C@H](C(=O)N[C@@H](Cc1c[nH]c2ccccc12)C(=O)O)[C@@H](C)CC [Endothelin-1, endothelin-1] | regressed image of a growth-phase hair follicle | image of a follicular tissue in transition phase | hair shaft falling-off and formation of a marked depilation spot | 2.22 Percentage | significant hair growth inhibitory effects | structural change of the endothelin-treated, growth-phase hair follicles into those similar to resting-phase hair follicles | significant (p<0.01) decrease in the number of hair shafts
endothelin-2 (CSCSSWLDKECVYFCHLDIIW; ends and bridges not checked; cysteine pairing not given here; UniProt P20800 49-69, looked up) [isoform of endothelin, a peptide composed of 21 amino acid residues] |  |  |  |  |  |  | significant (p<0.01) decrease in the number of hair shafts
endothelin-3 (CTCFTYKDKECVYYCHLDIIW; ends and bridges not checked; cysteine pairing not given here; UniProt P14138 97-117, looked up) [endotherin-3, isoform of endothelin, a peptide composed of 21 amino acid residues] |  |  |  |  |  |  | significant (p<0.01) decrease in the number of hair shafts
